In patent publication US7687547B2, “Diphenyl ether antimicrobial compounds” (Research Foundation of State University of New York, priority 2004, dated 2010):
In brackets after ≈: the same amount, converted by molar mass. Where two headings read alike, the source gives them in different places.

Legend:
InhA = InhA (Mycobacterium tuberculosis, UniProt P9WGR1); test: InhA enzyme inhibition IC50 (NADH oxidation at 340 nm, DD-CoA substrate); type: biochemical, M. tuberculosis
Experimental: IC50 values were determined by measuring the enzyme activity at different inhibitor concentrations. The experimental data were analyzed using Equation 1, where I is the inhibitor concentration and Y is fraction activity. Y=1/(1+[I]/IC50) (1)
All experiments were carried out on a CARY-100 Bio (Varian) spectrophotometer at 25° C. The buffer used was 30 mM PIPES, 150 mM NaCl, pH 6.8. Kinetic parameters were determined spectrophotometrically by following the oxidation of NADH to NAD^+ at 340 nm (ε=6.3 nM^−1 cm^−1). Trans-2-dodecenoyl-CoA (DD-CoA) was used as a substrate. Two sets of conditions were used for the IC50 determinations.
For inhibitors with IC50 values above 0.2 μM, reaction mixtures contained 250 μM NADH, 74 nM InhA, and 25 μM DD-CoA. […] In each case, the inhibitor concentration was varied over the range of 0-200 μM.

[1] = test system: Mycobacterium tuberculosis strain H37Rv; test: MIC99 microplate dilution growth inhibition; type: cell-based; conditions: M. tuberculosis H37Rv, 7H9 broth, 37° C., 3-5 days, lowest concentration inhibiting visible growth
[2] = InhA, 250 μM NADH, DD-CoA substrate, 25° C., pH 6.8, read-out: IC50

Chain of InhA (P9WGR1 whole entry, looked up): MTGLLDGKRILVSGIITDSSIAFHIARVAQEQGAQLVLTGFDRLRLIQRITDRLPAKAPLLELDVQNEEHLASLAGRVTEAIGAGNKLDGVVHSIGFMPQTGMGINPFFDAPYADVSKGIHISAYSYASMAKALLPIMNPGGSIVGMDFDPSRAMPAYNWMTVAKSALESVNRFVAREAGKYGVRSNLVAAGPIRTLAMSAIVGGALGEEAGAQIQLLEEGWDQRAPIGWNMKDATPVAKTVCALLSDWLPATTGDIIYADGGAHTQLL

| SMILES | IC50 (InhA; [2]) [nM] | MIC99 [1] [µM] | IC50 (InhA) [nM] |
| --- | --- | --- | --- |
| CCCCc1ccc(Oc2ccccc2)c(O)c1 [-(n-C4H9), 5-butyl-2-phenoxyphenol] | 80 | 0.93 (≈ 0.225 µg/mL) | – |
| CCCCCc1ccc(Oc2ccccc2)c(O)c1 [-(n-C5H11), 5-pentyl-2-phenoxyphenol] | 17 | 0.93 (≈ 0.238 µg/mL) | – |
| CCCCCCc1ccc(Oc2ccccc2)c(O)c1 [-(n-C6H13), 5-hexyl-2-phenoxyphenol] | – | 0.93 (≈ 0.251 µg/mL) | 10 |
| CCCCCCCCc1ccc(Oc2ccccc2)c(O)c1 [-(n-C8H17), 5-octyl-2-phenoxyphenol] | 5 | – | – |
| CCc1ccc(Oc2ccccc2)c(O)c1 [—C2H5, 5-ethyl-2-phenoxyphenol] | 2000 | 3.75 (≈ 0.803 µg/mL) | – |
